System: spontaneously hypertensive rats (SHR)
Assay: Hypotensive effect after oral administration, tail-cuff method
Format: in vivo, rat
Settings: SHR (male), 32 mg/kg body weight, 5 hours after administration vs before
Procedure: Each of the casein hydrolysate powders prepared in Example and Comparative Examples shown in Table 1 were administered orally to five 27-week-old spontaneously hypertensive rats (SHR) (male) at a dose of 32 mg/kg body weight. Blood pressure was measured before the administration and 5 hours after the administration by tail-cuff method with Tail-cuff PB-98 (manufacture by SOFTRON) to evaluate the change in blood pressure. As a control, casein was administered instead of the powders, and the same evaluation was made. Before the measurement of blood pressure, rats were warmed in a preheat box (manufactured by CSI JAPAN) at 45° C. for 8 minutes.
Further, in accordance with the above method, a dose-dependent hypotensive effect was tested using the casein hydrolysate powders prepared in Example 1.

Substance: casein [Control]
- Blood pressure drop (average ± SD): −2.5 ± 7.5
- Blood pressure drop (average ± SD) (listed as casein): no change in blood pressure was observed

Source: patent publication US8580557B2, “Casein hydrolyzate, process for producing the same and use thereof” (Calpis Co., Ltd., priority 2003, dated 2013)
